Literature values, collected in patent publication US6013628A, “Method for treating conditions of the eye using polypeptides” (Regents of the University of Minnesota, priority 1995, dated 2000).

Test system: retinal pigmented epithelial cells
Conditions: Avery et al. 1986; cited from earlier work

Arg-Gly-Asp-Ser (RGDS)
Adhesion of retinal pigmented epithelial cells to fibronectin, type I collagen, type II collagen and lens capsule basement membrane: inhibit the adhesion
